Assay results published in PubChem BioAssay AID2060492 (Molecular Pharmacology Branch, DTP, NCI, 2025).

Test system: 695427-040-R-J1-PDC complex spheroids, viability percent T/C
Experiment: Anticancer human tumor 695427-040-R-J1-PDC patient-derived colon adenocarcinoma cell line growth inhibition [GQUAD]
Details: for IC50: curve of first compound; for viability, T/C: stronger effect = lower value
In short: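 Multi-cell-type spheroids of tumor cells with HUVEC and mesenchymal stem cells, treated with drug combinations. Concentrations descend in half-log steps from near clinical Cmax, or from 10 microM where Cmax is unknown; viability read-out.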

[1] = second compound 0.0316 µM, first compound 0.0316 µM
[2] = second compound 0.0316 µM, first compound 0.1 µM
[3] = second compound 0.0316 µM, first compound 0.316 µM
[4] = second compound 0.0316 µM, first compound 1 µM
[5] = second compound 0.0316 µM, first compound 3.16 µM
[6] = second compound 0.0316 µM, first compound 10 µM
[7] = second compound 0.1 µM, first compound 0.0316 µM
[8] = second compound 0.1 µM, first compound 0.1 µM
[9] = second compound 0.1 µM, first compound 0.316 µM
[10] = second compound 0.1 µM, first compound 1 µM
[11] = second compound 0.1 µM, first compound 3.16 µM
[12] = second compound 0.1 µM, first compound 10 µM
[13] = second compound 0.316 µM, first compound 0.0316 µM
[14] = second compound 0.316 µM, first compound 0.1 µM
[15] = second compound 0.316 µM, first compound 0.316 µM
[16] = second compound 0.316 µM, first compound 1 µM
[17] = second compound 0.316 µM, first compound 3.16 µM
[18] = second compound 0.316 µM, first compound 10 µM
[19] = second compound 1 µM, first compound 0.0316 µM
[20] = second compound 1 µM, first compound 0.1 µM
[21] = second compound 1 µM, first compound 0.316 µM
[22] = second compound 1 µM, first compound 1 µM
[23] = second compound 1 µM, first compound 3.16 µM
[24] = second compound 1 µM, first compound 10 µM
[25] = second compound 3.16 µM, first compound 0.0316 µM
[26] = second compound 3.16 µM, first compound 0.1 µM
[27] = second compound 3.16 µM, first compound 0.316 µM
[28] = second compound 3.16 µM, first compound 1 µM
[29] = second compound 3.16 µM, first compound 3.16 µM
[30] = second compound 3.16 µM, first compound 10 µM
[31] = second compound 10 µM, first compound 0.0316 µM
[32] = second compound 10 µM, first compound 0.1 µM
[33] = second compound 10 µM, first compound 0.316 µM
[34] = second compound 10 µM, first compound 1 µM
[35] = second compound 10 µM, first compound 3.16 µM
[36] = second compound 10 µM, first compound 10 µM
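Note: spheroids exposed to compounds for seven days before readout.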

Compound: Cc1cccc(N(C)C(=O)C2C(O)CCN2c2nc(C)cc(C(F)(F)F)c2C#N)c1 (stereo unspecified) + CN(C)c1ccc(Nc2c3ccc(NC(=O)CCN4CCCC4)cc3nc3cc(NC(=O)CCN4CCCC4)ccc23)cc1
- IC50 (second compound 0.0316 µM): > 10 µM
- IC50 (second compound 0.1 µM): > 10 µM
- IC50 (second compound 0.316 µM): > 10 µM
- IC50 (second compound 1 µM): > 10 µM
- IC50 (second compound 3.16 µM): > 10 µM
- IC50 (second compound 10 µM): > 10 µM
- viability, T/C [1]: 111%
- viability, T/C [2]: 103%
- viability, T/C [3]: 106%
- viability, T/C [4]: 99.9%
- viability, T/C [5]: 107%
- viability, T/C [6]: 90.3%
- viability, T/C [7]: 110%
- viability, T/C [8]: 92.3%
- viability, T/C [9]: 106%
- viability, T/C [10]: 102%
- viability, T/C [11]: 101%
- viability, T/C [12]: 95.6%
- viability, T/C [13]: 110%
- viability, T/C [14]: 101%
- viability, T/C [15]: 97.3%
- viability, T/C [16]: 98.2%
- viability, T/C [17]: 107%
- viability, T/C [18]: 103%
- viability, T/C [19]: 104%
- viability, T/C [20]: 90.7%
- viability, T/C [21]: 98.3%
- viability, T/C [22]: 96.1%
- viability, T/C [23]: 104%
- viability, T/C [24]: 101%
- viability, T/C [25]: 93.6%
- viability, T/C [26]: 94.6%
- viability, T/C [27]: 95.4%
- viability, T/C [28]: 95.6%
- viability, T/C [29]: 106%
- viability, T/C [30]: 93.9%
- viability, T/C [31]: 81%
- viability, T/C [32]: 86.6%
- viability, T/C [33]: 88.9%
- viability, T/C [34]: 78.8%
- viability, T/C [35]: 91.2%
- viability, T/C [36]: 85.8%

Compound: Cn1ncnc1[C@H]1c2n[nH]c(=O)c3cc(F)cc(c23)N[C@@H]1c1ccc(F)cc1 + CN(C)c1ccc(Nc2c3ccc(NC(=O)CCN4CCCC4)cc3nc3cc(NC(=O)CCN4CCCC4)ccc23)cc1
- IC50 (second compound 0.0316 µM): > 0.316 µM
- IC50 (second compound 0.1 µM): > 0.316 µM
- IC50 (second compound 0.316 µM): > 0.316 µM
- IC50 (second compound 1 µM): > 0.316 µM
- IC50 (second compound 3.16 µM): > 0.316 µM
- IC50 (second compound 10 µM): > 0.316 µM
- viability, T/C (second compound 0.0316 µM, first compound 0.000999 µM): 102%
- viability, T/C (second compound 0.0316 µM, first compound 0.00316 µM): 92.9%
- viability, T/C (second compound 0.0316 µM, first compound 0.00999 µM): 101%
- viability, T/C [1]: 103%
- viability, T/C (second compound 0.0316 µM, first compound 0.0999 µM): 100%
- viability, T/C [3]: 93%
- viability, T/C (second compound 0.1 µM, first compound 0.000999 µM): 112%
- viability, T/C (second compound 0.1 µM, first compound 0.00316 µM): 89.1%
- viability, T/C (second compound 0.1 µM, first compound 0.00999 µM): 95.7%
- viability, T/C [7]: 92.8%
- viability, T/C (second compound 0.1 µM, first compound 0.0999 µM): 93.5%
- viability, T/C [9]: 97.5%
- viability, T/C (second compound 0.316 µM, first compound 0.000999 µM): 88.2%
- viability, T/C (second compound 0.316 µM, first compound 0.00316 µM): 95.8%
- viability, T/C (second compound 0.316 µM, first compound 0.00999 µM): 99.5%
- viability, T/C [13]: 96.6%
- viability, T/C (second compound 0.316 µM, first compound 0.0999 µM): 90.9%
- viability, T/C [15]: 91.2%
- viability, T/C (second compound 1 µM, first compound 0.000999 µM): 105%
- viability, T/C (second compound 1 µM, first compound 0.00316 µM): 97.8%
- viability, T/C (second compound 1 µM, first compound 0.00999 µM): 91.5%
- viability, T/C [19]: 104%
- viability, T/C (second compound 1 µM, first compound 0.0999 µM): 101%
- viability, T/C [21]: 87.3%
- viability, T/C (second compound 3.16 µM, first compound 0.000999 µM): 99.6%
- viability, T/C (second compound 3.16 µM, first compound 0.00316 µM): 94.7%
- viability, T/C (second compound 3.16 µM, first compound 0.00999 µM): 88.8%
- viability, T/C [25]: 94.2%
- viability, T/C (second compound 3.16 µM, first compound 0.0999 µM): 95%
- viability, T/C [27]: 93.4%
- viability, T/C (second compound 10 µM, first compound 0.000999 µM): 93.3%
- viability, T/C (second compound 10 µM, first compound 0.00316 µM): 89.8%
- viability, T/C (second compound 10 µM, first compound 0.00999 µM): 77.3%
- viability, T/C [31]: 86.2%
- viability, T/C (second compound 10 µM, first compound 0.0999 µM): 96.4%
- viability, T/C [33]: 90.1%

Compound: O=C(c1cc(Cc2n[nH]c(=O)c3ccccc23)ccc1F)N1CCN(C(=O)C2CC2)CC1 + CN(C)c1ccc(Nc2c3ccc(NC(=O)CCN4CCCC4)cc3nc3cc(NC(=O)CCN4CCCC4)ccc23)cc1
- IC50 (second compound 0.0316 µM): > 10 µM
- IC50 (second compound 0.1 µM): > 10 µM
- IC50 (second compound 0.316 µM): > 10 µM
- IC50 (second compound 1 µM): > 10 µM
- IC50 (second compound 3.16 µM): > 10 µM
- IC50 (second compound 10 µM): > 10 µM
- viability, T/C [1]: 111%
- viability, T/C [2]: 100%
- viability, T/C [3]: 93.4%
- viability, T/C [4]: 102%
- viability, T/C [5]: 107%
- viability, T/C [6]: 90.8%
- viability, T/C [7]: 107%
- viability, T/C [8]: 94.2%
- viability, T/C [9]: 104%
- viability, T/C [10]: 95.9%
- viability, T/C [11]: 103%
- viability, T/C [12]: 96%
- viability, T/C [13]: 99.2%
- viability, T/C [14]: 89.1%
- viability, T/C [15]: 95.9%
- viability, T/C [16]: 98.9%
- viability, T/C [17]: 100%
- viability, T/C [18]: 97.2%
- viability, T/C [19]: 93.2%
- viability, T/C [20]: 88.7%
- viability, T/C [21]: 98.5%
- viability, T/C [22]: 93.6%
- viability, T/C [23]: 113%
- viability, T/C [24]: 89.9%
- viability, T/C [25]: 97.1%
- viability, T/C [26]: 90.7%
- viability, T/C [27]: 92.5%
- viability, T/C [28]: 89.3%
- viability, T/C [29]: 103%
- viability, T/C [30]: 92%
- viability, T/C [31]: 91.1%
- viability, T/C [32]: 84.6%
- viability, T/C [33]: 88%
- viability, T/C [34]: 82.9%
- viability, T/C [35]: 96.2%
- viability, T/C [36]: 90.6%
